Drawing on US6903128B2, “Non-peptidyl inhibitors of VLA-4 dependent cell binding useful in treating inflammatory, autoimmune, and respiratory diseases” (Pfizer Inc, priority 1999, dated 2005), this text covers melting point for 2 molecules.

In the case of `COc1cc(CC(=O)NC(CC(C)C)c2cc(CC(NC(C)=O)C(=O)O)on2)ccc1NC(=O)Nc1ccccc1C` (centres unmarked) [Example 27, 2-acetylamino-3-[3-(1-{2-[3-methoxy-4-(3-o-tolyl-ureido)-phenyl]-acetylamino}-3-methyl-butyl)-isoxazol-5-yl]-propionic acid], the melting point – broadly, the temperature, or range, at which the solid turns liquid – is 123 to 125 °C.

As to `COc1cc(CC(=O)NC(CC(C)C)c2cc(CC(NC(=O)c3c(Cl)cccc3Cl)C(=O)O)on2)ccc1NC(=O)Nc1ccccc1C` (centres unmarked) [Example 25, 2-(2,6-Dichloro-benzoylamino)-3-[3-(1-{2-[3-methoxy-4-(3-o-tolyl-ureido)-phenyl]-acetylamino}-3-methyl-butyl)-isoxazol-5-yl]-propionic acid], the melting point is 102 to 104 °C.
